Source: ChEMBL document CHEMBL4699466, “Isolation, reactivity, pharmacological activities and total synthesis of hispanolone and structurally related diterpenes from Labiatae plants” (Bioorg Med Chem Lett, 2020)
Values belong to the compound of their own block, whether it stands above or below them.

How the values were obtained:
[1] = test system: RAW264.7; test: Antiinflammatory activity against mouse RAW264.7 cells assessed as inhibition of LPS-induced nitrite accumulation at 10 uM preincubated for 30 mins followed by LPS-stimulation and measured after 24 hrs by Griess reagent based assay relative to control; format: functional; parameters: scale not given: the % may be the effect or the level left; settings: time 24.5 hrs
[2] = Antagonist activity at PAF receptor in rabbit platelet membrane assessed as inhibition of [3H]-PAF binding to PAF receptor; format: cell membranes, Oryctolagus cuniculus, Cell membrane
[3] = Metal chelating activity of the compound assessed as Fe2+-compound complex formation at 0.250 mg/ml incubated for 10 mins in presence of ferrozine solution relative to control; settings: dose 0.25 mg/ml
[4] = target: 11-beta-hydroxysteroid dehydrogenase 1 (Homo sapiens) (UniProt P28845); test: Inhibition of human 11beta-HSD1 expressed in HEK-293 cells assessed as residual activity at […] using radiolabeled cortisone as substrate by scintillation counting; format: cell-based; settings: HEK293
[5] = Metal chelating activity of the compound assessed as Fe2+-compound complex formation at 1 mg/ml incubated for 10 mins in presence of ferrozine solution relative to control
[6] = species: Mus musculus; test: cells; settings: Swiss-Taconi
Description: Antiinflammatory activity in Swiss-Taconi mouse assessed as reduction in TPA-induced ear edema

[7] = Metal chelating activity of the compound assessed as Fe2+-compound complex formation at 0.500 mg/ml incubated for 10 mins in presence of ferrozine solution relative to control; settings: dose 0.5 mg/ml
[8] = test system: Neutrophil; test: Antiinflammatory activity in human neutrophils assessed as inhibition of fMLF/cytochalasin B-induced superoxide anion generation; format: functional, cell-based
[9] = test system: Neutrophil; test: Antiinflammatory activity in human neutrophils assessed as inhibition of fMLF/cytochalasin B-induced superoxide anion generation at 10 uM relative to control; format: functional; parameters: scale not given: the % may be the effect or the level left
[10] = target: T1, Sulfotransferase 1E1 (Homo sapiens, UniProt P49888); test: Inhibition of estrogen sulfotransferase in human liver cytosol incubated for 30 mins in presence of [3H]-estradiol and adenosine -3'-phosphate 5'-phosphosulfate by liquid scintillation counting method; format: subcellular
T1 sequence (P49888 whole entry): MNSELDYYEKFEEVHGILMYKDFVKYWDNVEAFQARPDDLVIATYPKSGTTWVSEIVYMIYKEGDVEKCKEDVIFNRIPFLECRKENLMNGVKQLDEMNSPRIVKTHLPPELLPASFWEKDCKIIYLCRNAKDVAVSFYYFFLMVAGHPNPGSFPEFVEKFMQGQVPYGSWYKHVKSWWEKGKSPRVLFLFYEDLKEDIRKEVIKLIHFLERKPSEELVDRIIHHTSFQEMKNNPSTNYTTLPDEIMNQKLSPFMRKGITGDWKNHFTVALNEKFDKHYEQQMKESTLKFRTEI

[11] = test system: Neutrophil; test: Antiinflammatory activity in human neutrophils assessed as inhibition of elastase release; format: functional, cell-based
[12] = target: T2, Acetylcholinesterase (Rattus norvegicus, UniProt P37136); test: Inhibition of Sprague-Dawley rat acetylcholinesterase using acetylthiocholine iodide as substrate measured at 30 secs for 5 mins by Ellman's method
T2 sequence (P37136 whole entry): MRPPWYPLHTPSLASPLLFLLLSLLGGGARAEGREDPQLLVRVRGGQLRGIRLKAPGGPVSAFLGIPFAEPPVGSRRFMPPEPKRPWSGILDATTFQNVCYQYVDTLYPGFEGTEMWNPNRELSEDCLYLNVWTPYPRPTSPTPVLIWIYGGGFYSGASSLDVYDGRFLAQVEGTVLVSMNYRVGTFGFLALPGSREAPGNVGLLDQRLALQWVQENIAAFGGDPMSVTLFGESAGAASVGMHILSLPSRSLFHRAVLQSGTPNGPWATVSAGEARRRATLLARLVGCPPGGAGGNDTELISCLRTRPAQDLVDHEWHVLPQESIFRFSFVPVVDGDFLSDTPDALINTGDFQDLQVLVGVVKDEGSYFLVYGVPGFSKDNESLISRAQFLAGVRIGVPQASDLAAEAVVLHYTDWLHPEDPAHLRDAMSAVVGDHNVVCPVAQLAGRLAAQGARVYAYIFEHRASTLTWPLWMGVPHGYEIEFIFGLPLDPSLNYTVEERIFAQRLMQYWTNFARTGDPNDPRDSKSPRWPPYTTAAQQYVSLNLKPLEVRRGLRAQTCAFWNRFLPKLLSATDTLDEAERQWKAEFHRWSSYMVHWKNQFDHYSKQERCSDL

[13] = test system: Neutrophil; test: Antiinflammatory activity in human neutrophils assessed as inhibition of elastase release at 10 uM relative to control; format: functional; parameters: scale not given: the % may be the effect or the level left

Chain of 11-beta-hydroxysteroid dehydrogenase 1 (Homo sapiens) (P28845 whole entry, looked up): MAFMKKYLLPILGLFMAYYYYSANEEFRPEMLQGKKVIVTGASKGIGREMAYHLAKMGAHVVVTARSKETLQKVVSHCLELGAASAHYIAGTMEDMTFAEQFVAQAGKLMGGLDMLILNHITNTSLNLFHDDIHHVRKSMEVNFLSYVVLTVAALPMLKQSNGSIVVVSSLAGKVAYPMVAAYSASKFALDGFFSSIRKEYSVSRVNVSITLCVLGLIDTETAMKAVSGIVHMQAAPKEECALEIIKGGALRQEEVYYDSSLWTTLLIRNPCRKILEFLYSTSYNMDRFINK

Structure (SMILES): CC1=C(CCC2=CC(=O)OC2O)[C@@]2(C)CCCC(C)(C)[C@@H]2CC1=O (some centres undefined)
- Activity [1]: 84.1%

- IC50 [2]: 4 µM
Structure (SMILES): C[C@@H]1C(=O)C[C@H]2C(C)(C)CCC[C@]2(C)[C@@]12CC[C@]1(C=COC1)O2

Structure (SMILES): CCC1=C(Cc2ccoc2)C(=O)[C@@]2(C)CCCC(C)(C)[C@@H]2C1
- Activity [1]: 35.53%

- Activity [3]: 96%
- Activity [4]: 20%
- Activity [5]: 97.3%
- IC50 [6]: 1.05 µM
- Activity [7]: 97%
Structure (SMILES): C[C@@H]1C(=O)C[C@H]2C(C)(C)CCC[C@]2(C)[C@@]1(O)CCc1ccoc1

Structure (SMILES): CC1=C(CCc2ccoc2)[C@@]2(C)CCCC(C)(C)[C@@H]2CC1=O
- IC50 [8]: 8.48 µM
- Activity [9]: 58.43%
- IC50 [10]: 19.8 µM
- IC50 [11]: 5.42 µM
- IC50 [12]: 38.5 µM
- Activity [13]: 70.06%
